ChEMBL document CHEMBL1201862, “PubChem BioAssay data set” (2004)
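In this assay, cells in 96-well plates receive the compound at five concentrations for 48 hours. Endpoints are linearly interpolated between the surrounding concentrations. At the GI50, growth is halved.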 Calls of active or inactive are those of the source. Cut-off read from the data, not from the text of the source: active = GI50 up to about 1.1 µM and inactive = higher.

What was measured:
Test in all cases: growth of human tumour cells (NCI), 48 h
[1] = test system: UACC-257
[2] = test system: SK-MEL-28
[3] = test system: NCI-H226
[4] = test system: A549
[5] = test system: SR
[6] = test system: OVCAR-3
[7] = test system: CCRF-CEM
[8] = test system: UO-31
[9] = test system: RPMI-8226
[10] = test system: HOP-92
[11] = test system: HCC 2998
[12] = test system: KM12
[13] = test system: CAKI-1
[14] = test system: HT-29
[15] = test system: EKVX
[16] = test system: NCI-H460
[17] = test system: Hs-578T
[18] = test system: PC-3
[19] = test system: DU-145

Measured: GI50

CC1(C)OC(=O)C(=Cc2ccc(O)cc2)C(=O)O1
inactive: [1] > 100 µM | [2] > 100 µM | [3] > 100 µM | [4] > 100 µM | [5] > 100 µM | [6] > 100 µM | [7] > 100 µM | [8] > 100 µM | [9] > 100 µM | [10] > 100 µM | [11] > 100 µM | [12] > 100 µM | [13] > 100 µM | [14] > 100 µM | [15] > 100 µM | [16] > 100 µM

COc1cc(CNc2nc3ccccc3n2Cc2ccccc2)cc(CN2CCOCC2)c1O
inactive: [1] 20.1 µM | [17] 29.9 µM | [2] 18.4 µM | [3] 30.8 µM | [4] 47.5 µM | [6] 20.6 µM | [7] 28.3 µM | [8] 18.2 µM | [18] 29.4 µM | [9] 91 µM | [10] 12.1 µM | [11] 33.9 µM | [12] 34.8 µM | [13] 26.2 µM | [14] 23.3 µM | [15] 53.3 µM | [19] 80.9 µM | [16] 50.9 µM

CC(=O)OCC1OC(n2cc(I)c(=O)[nH]c2=O)C(OC(C)=O)C(OC(C)=O)C1OC(C)=O (stereo not drawn)
inactive: [1] > 100 µM | [2] > 100 µM | [3] > 100 µM | [4] > 100 µM | [5] > 100 µM | [6] > 100 µM | [7] > 100 µM | [8] > 100 µM | [9] > 100 µM | [10] > 100 µM | [11] > 100 µM | [12] > 100 µM | [13] > 100 µM | [14] > 100 µM | [15] > 100 µM | [16] > 100 µM

COc1cccc(Nc2nc3c([nH]2)c(=O)n(C)c(=O)n3C)c1
inactive: [1] > 10 µM | [2] > 10 µM | [4] > 10 µM | [5] > 10 µM | [7] > 10 µM | [18] > 10 µM | [9] > 10 µM | [10] > 10 µM | [11] > 10 µM | [12] > 10 µM | [13] > 10 µM | [14] > 10 µM | [15] > 10 µM | [19] > 10 µM

O=C1NC2(NC(=O)C1=O)Nc1ccccc1S2
inactive: [1] > 61.4 µM | [2] 43.5 µM | [3] > 58.6 µM | [4] > 60.5 µM | [5] 24.5 µM | [6] > 89.3 µM | [7] 20.2 µM | [8] 30.7 µM | [9] 21.6 µM | [10] > 100 µM | [11] > 65.5 µM | [12] > 80.4 µM | [13] 62.5 µM | [14] 67 µM | [15] > 100 µM | [16] 51.5 µM

O=C(/C=C/c1ccc(O)cc1)c1ccc2c(c1)OCO2
inactive: [1] 18.6 µM | [2] 20.9 µM | [3] 15.5 µM | [4] 19.4 µM | [5] 10.2 µM | [6] 16.5 µM | [7] 1.21 µM | [8] 18.1 µM | [18] 24.6 µM | [10] 22.4 µM | [11] 20.8 µM | [12] 17 µM | [13] 4.56 µM | [14] 13.4 µM | [15] 36.2 µM | [19] 33.4 µM | [16] 26.2 µM

COC(=O)CCC(=O)c1ccc2c(c1)CC1(C2)Cc2ccc(C(=O)CCC(=O)OC)cc2C1
inactive: [1] 85.1 µM | [17] > 100 µM | [4] > 100 µM | [5] 17 µM | [6] 61.2 µM | [7] > 100 µM | [8] 30.5 µM | [18] 39.8 µM | [9] 35.2 µM | [10] > 100 µM | [11] > 100 µM | [12] > 100 µM | [14] > 100 µM | [15] > 100 µM

N#CCC(=O)Nc1ccccc1O
inactive: [1] > 100 µM | [2] > 100 µM | [3] > 100 µM | [4] > 100 µM | [5] > 100 µM | [6] > 100 µM | [7] > 100 µM | [8] > 100 µM | [9] > 100 µM | [10] > 100 µM | [11] > 100 µM | [12] > 100 µM | [13] > 100 µM | [14] > 100 µM | [15] > 100 µM | [16] > 100 µM

O=C(OC[C@H]1O[C@@H](OC(=O)c2cc(O)c(O)c(O)c2)[C@H](OC(=O)c2cc(O)c(O)c(O)c2)[C@@H](OC(=O)c2cc(O)c(O)c(O)c2)[C@@H]1OC(=O)c1cc(O)c(O)c(O)c1)c1cc(O)c(O)c(O)c1 [PENTAGALLOYL GLUCOSE]
inactive: [1] 14.9 µM | [2] 15.3 µM | [3] 1.49 µM | [4] 3.54 µM | [5] 4.13 µM | [6] 3.78 µM | [7] 3.33 µM | [8] 5.79 µM | [9] 2.76 µM | [10] 5.58 µM | [11] 3.21 µM | [12] 2.34 µM | [13] 7.67 µM | [14] 6.92 µM | [15] 6.04 µM | [16] 3.27 µM
